Measured values published in ChEMBL document CHEMBL1127383, “Improved binding affinity for cyclophilin A by a cyclosporin derivative singly modified at its effector domain” (J Med Chem, 1994).

Key:
Mus musculus = organism: Mus musculus; assay: Compound was evaluated for in vitro immunosuppressive activity in the mouse mixed lymphocyte reaction (MLR-M); assay type: functional
[1] = Compound was evaluated for in vitro immunosuppressive activity in the interleukin-2 reporter gene assay (IL2-RG); assay type: functional
[2] = biological target: Peptidyl-prolyl cis-trans isomerase A (Homo sapiens, UniProt P62937); assay: Compound was evaluated for in vitro binding affinity to cyclophilin A (CyP-A)
Peptidyl-prolyl cis-trans isomerase A, sequence (P62937 whole entry): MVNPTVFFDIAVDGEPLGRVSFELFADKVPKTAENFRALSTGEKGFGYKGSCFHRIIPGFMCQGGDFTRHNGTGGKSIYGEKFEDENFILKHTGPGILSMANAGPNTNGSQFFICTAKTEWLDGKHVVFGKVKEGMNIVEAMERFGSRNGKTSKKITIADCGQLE

IC50 (Mus musculus) | IC50 [1] | IC50 [2] | SMILES
46 nM | 14 nM | 16 nM | C/C=C/C[C@@H](C)[C@@H](O)[C@H]1C(=O)N[C@@H](CC)C(=O)N(C)CC(=O)N(C)[C@@H](C[C@@H](C)CC)C(=O)N[C@@H](C(C)C)C(=O)N(C)[C@@H](CC(C)C)C(=O)N[C@@H](C)C(=O)N[C@H](C)C(=O)N(C)[C@@H](CC(C)C)C(=O)N(C)[C@@H](CC(C)C)C(=O)N(C)[C@@H](C(C)C)C(=O)N1C
45 nM | 17 nM | 2.3 nM | C/C=C/C[C@@H](C)[C@@H](O)[C@H]1C(=O)NC(CC)C(=O)N(C)CC(=O)N(C)[C@@H](C[C@@H](C)CC)C(=O)N[C@@H](C(C)C)C(=O)N(C)[C@@H](CC(C)C)C(=O)N[C@@H](C)C(=O)N[C@H](C)C(=O)N(C)[C@@H](CC(C)C)C(=O)N(C)[C@@H](CC(C)C)C(=O)N(C)C(C(C)C)C(=O)N1C (single isomer, unassigned)
